Data: patent publication US20240336653A1, “PEPTIDE COMPOUND TARGETING ELASTIN-DERIVED PEPTIDES AND USE THEREOF” (Shenzhen Turier Biotech Co., Ltd., priority 2020, published 2024)
*1 amine or outer side, *2 acyl side, *3 side chain or, on linkers, in order; H or OH if unused. Primed or numbered codes have the meaning given here. Where no end group is shown, it is not given here. [ ]: non-standard residue; d: D form. The star is where a group is joined. C20 diacid = O=C(O)CCCCCCCCCCCCCCCCCCC(=O)*; γGlu = O=C(O)[C@H](CCC(=O)[*:2])N[*:1]; Iva = CC[C@](C)(N)C(=O)O; PEG2′ = not defined here

Columns and labels:
[1] = tested on: bleomycin induced pulmonary fibrosis; assay: Bleomycin (BLM) induced pulmonary fibrosis model in mice; format: in vivo, C57BL/6J mice; details: 150 μg/kg daily intraperitoneal, 14 days, FIG. 5; for degree of pulmonary fibrosis (H&E staining and Masson staining): compared with bleomycin control group; for fibronectin in pulmonary parenchyma (α-SMA and Collagen1 immunohistochemistry): compared with bleomycin group
Protocol: (§1) Molding method: 78 male C57BL/6J mice, 16-18 g in weight and 6-8 weeks old, provided by Laboratory Animal Center, Sun Yat-sen University, randomly divided into 13 groups: 1) normal control group (Normal), n=6; 2) sham-operated saline control group (Saline), n=6; 3) bleomycin model group (BLM), n=6; and 4) model treatment group: administration of 150 μg/kg series compounds to mice, 10 groups in total, n=6/group. On the 7th day after the operation of bleomycin induced pulmonary fibrosis in mice, mice in the model treatment group are treated with drugs (administration frequency: daily administration/150 μg/kg, intraperitoneal injection). Samples are taken 14 days after administration, and pathological observations are recorded.
(§2) The bleomycin (purchased from TCI Shanghai)) induced pulmonary fibrosis model manifests the following pathological features: bronchiectasis, hydropic degeneration of bronchial epithelial cells, obvious edema and widening of alveolar interstitium, and deposition of a large number of fibroblasts and collagen tissue. The alveolar structure almost completely disappears, filled with fibrous connective tissue, and accompanied by inflammatory cell infiltration. After 14 days of administration, the mice in the model treatment group are treated and sampled. Blood is taken from the retrobulbar vein for detection of serological indicators, and […] is taken for pathological analysis.
(§3) H&E staining: paraffin embedded tissue sections are taken and baked at 60° C. for 1 h. Dewaxing and hydration: xylene for 20 minutes→xylene for 20 minutes→absolute alcohol for 15 minutes→absolute alcohol for 15 minutes→95% alcohol for 10 minutes→90% alcohol for 5 minutes→80% alcohol for 5 minutes. Staining: hematoxylin for 7 minutes→rinsing with tap water→differentiation with 1% hydrochloric acid alcohol for 1 s→rinsing with tap water→eosin staining for 15 s-20 s→rinsing with tap water. Dehydration and transparency: 75% alcohol for 1 s→85% alcohol for 1 s→95% alcohol for 1 s→100% alcohol for 1 s→xylene for 1 s→xylene for 1 s. The sections are aired for 30 minutes and sealed with gum.
Masson staining: drying and dewaxing; mordanting; adding celestine blue staining solution for 2-3 min, and washing with water; adding Mayer hematoxylin staining solution and washing with water; differentiating with acid alcohol differentiation liquid for several seconds, and washing with tap water; adding ponceau magenta staining solution and washing with distilled water; treating with phosphomolybdic acid solution; adding aniline blue staining solution for 5 min; treating with weak acid solution for 2 min; dehydration and transparency, airing and sealing with gum.
Immunohistochemistry: drying sections, dewaxing, and then soaking in double distilled water for 5 minutes. […]

TGF-β = assay: ELISA of TGFβ in serum of mice of the bleomycin model; format: in vivo, C57BL/6J mice; details: BLM mice, 150 μg/kg daily intraperitoneal, 14 days, FIG. 6-B
Protocol: as §1, §2
(§4) The occurrence and development of fibrotic diseases are related to TGF-β and MMP-9 induced EMT process. Matrix metalloproteinases (MMPs) are matrix degrading proteases that degrade all components of extracellular matrix. They participate in the pathophysiological process of pulmonary fibrosis, play an important role in the abnormal remodeling of extracellular matrix and destruction of basement membrane, and promote the recruitment of inflammatory cells and fibroblasts. The increased expression of MMP-9 in pulmonary fibrosis animal models and patients, higher than the normal MMP-9 level, may destroy normal tissue structure and increase the migration of inflammatory cells to the disease site. In order to further explore the inhibitory mechanism of polypeptide drugs on bleomycin induced pulmonary fibrosis, we detect the expression of TGFβ, MMP9 cell factors in serum of mice in each group by ELISA. […] We speculate that its mechanism should be related to TGF-β.

[2] = tested on: CCl4 induced hepatic fibrosis; assay: Carbon tetrachloride (CCl4) induced hepatic fibrosis model in mice; format: in vivo, C57BL/6J mice; details: 100.0 μg/kg intraperitoneal, 3 weeks of administration; for aggregation of inflammatory cells in the liver (HE staining) / hepatic fibrosis of mice: FIG. 2; for expression of Collagen I in the liver (immunohistochemistry): FIG. 3; for collagen deposition in the liver (Sirius red staining): FIG. 4
Protocol: Molding method: 72 male C57BL/6J mice, male, 18-22 g in weight and 8 weeks old, provided by Laboratory Animal Center, Sun Yat-sen University, randomly divided into 12 groups: 1) control group (Oil)+saline, intraperitoneal injection, n=6; 2) model control group (CCl4)+saline, intraperitoneal injection, n=6; administration of CCl4 to mice once every three days for 6 weeks; 3) model administration group (CCl4)+100.0 μg/kg series of compounds (group 10), intraperitoneal injection, n=6/group. The mice in the control group are injected with corn oil at the same volume and frequency according to the administration volume of 20% CCl4 at the weight of 5.0 μL/g. Administration frequency: administration of CCl4 to mice once every three days for 6 weeks. After 3 weeks of administration of CCl4 to mice in the model administration group, peptide compounds 1, 5, 7, 11, 12, 13, 17, 18, 21 and 22 are administered for 3 weeks from the 4th week. CCl4 and Oil are purchased from Shanghai Aladdin Biochemical Technology Co., Ltd.
In the CCl4 induced hepatic fibrosis model, the manifestations are: inflammatory cell infiltration around the central vein area, hydropic degeneration of hepatic cells, and increased accumulation of collagen fibers in the portal area and the hepatic interlobular septum. After three weeks of administration, the mice are treated and sampled. Blood is taken from the retrobulbar vein for detection of serological indicators, and liver tissue is taken for pathological analysis.
as §3, with “Hematoxylin-eosin (H&E) staining: paraffin” for “H&E staining: paraffin”, “s→xylene for Is→xylene for 1” for “s→xylene for 1 s→xylene for 1”
Sirius red staining: drying and dewaxing; standing for 5.0 minutes in double distilled water; Sirius red staining for 60-80 minutes in a dark room; washing for 5 s with 0.5% glacial acetic acid; dehydration and transparency, sealing and taking photos.
Immunohistochemistry: drying sections, dewaxing, and then soaking in double distilled water for 5 minutes. Antigen retrieval: putting the shelf where pathological sections are placed into a beaker containing citric acid buffer (PH=6.0), and keeping it under high temperature and pressure for 15 minutes; taking out the beaker and letting it stand at room temperature until the temperature drops to the room temperature, then taking out the sections and putting them into 3.0% hydrogen peroxide for 10 minutes to block the endogenous peroxidase activity, and then washing them with PBS for three times, 5 minutes each time; sealing the tissues with 1.0% BSA for 1 h; removing 1.0% BSA, adding Collagen I antibody on the tissue according to the proportion recommended in the Description, and staying overnight at 4° C.; taking out the pathological sections next day, adding the second antibody with horseradish peroxidase after the room temperature is restored, incubating it at 37° C. for 60 minutes, and then use DAB (diaminobenzidine) ([…], USA) to develop color; and re-staining with hematoxylin staining solution, washing with tap water for 5 minutes, differentiating with 1% hydrochloric acid alcohol, then washing with tap water for 5 minutes again, dehydrating, airing, sealing, and taking photos (H&E staining solution and Sirius red staining solution are purchased from Sangon Biotech (Shanghai) Co., Ltd., and Collagen I antibody is purchased from CST Corporation).

MMP9 = assay: ELISA of MMP9 in serum of mice of the bleomycin model; format: in vivo, C57BL/6J mice; details: BLM mice, 150 μg/kg daily intraperitoneal, 14 days, FIG. 6-A
Protocol: as §1, §2, §4

LX2 cells = assay: Activity evaluation in LX2 cell model (α-SMA protein expression); format: cell-based, human; details: 1.0 μM and 10.0 μM, 48 hours incubation, GAPDH internal reference, FIG. 1
Text: In LX2 cell model (which can be directly used as the evaluation model of hepatic fibrosis cells in vitro, because LX2 cells are human liver activated stellate cells. The LX2 cells are purchased from China Center for Type Culture Collection of the Chinese Academy of Sciences, Shanghai, China), the anti-fibrosis activities of peptide compounds 1-25 are preliminarily screened, and the expression of the marker α-SMA protein of myofibroblast activation is detected. The peptide compounds 1-25 is subjected to cell incubation for 48 hours by using two concentrations (1.0 μM and 10.0 μM). The control group is given the same volume of Dulbecco's modified Eagle medium (DMEM) (purchased from Gibco in the United States), and GAPDH (purchased from TransGen Biotech) as the internal reference, α-actin (α-SMA) is a symbolic feature that distinguishes myoblast cells from myofibroblasts.

Substance | degree of pulmonary fibrosis (H&E staining and Masson staining) [1] | fibronectin in pulmonary parenchyma (α-SMA and Collagen1 immunohistochemistry) [1] | concentration of TGF-β in serum of mice (TGF-β) | aggregation of inflammatory cells in the liver (HE staining) [2] | hepatic fibrosis of mice [2] | expression of Collagen I in the liver (immunohistochemistry) [2] | collagen deposition in the liver (Sirius red staining) [2] | concentration of MMP9 in serum of mice (MMP9) | inhibiting and improving the activity of α-SMA (expression of α-SMA protein) (LX2 cells)
(PEG2-PEG2-γGlu-CO(CH2)18CO2H)-Val-Val-Gly-Ser-Pro-Ser-Ala-Gln-Glu-Asp-Ala-Ser-Pro-Leu-NH2 ({C20 diacid-γGlu-PEG2′-PEG2′}-VVGSPSAQEDASPL-NH2) [Compound 12] | significantly reduced | significantly less than that in bleomycin group | significantly reduce | significantly improved | significantly improved | significant therapeutic improvement | significant therapeutic improvement | significantly reduce | better effects on inhibiting and improving the activity of α-SMA
Compound 17: cyclic peptide compound, head-to-tail amide (VVGSPSAQDEASPL; head-to-tail cyclisation; Compound 17) | significantly reduced | significantly less than that in bleomycin group | significantly reduce | significantly improved | significantly improved | significant therapeutic improvement | significant therapeutic improvement | significantly reduce | better effects on inhibiting and improving the activity of α-SMA
Compound 21: cyclic peptide compound, head-to-tail amide (cyclo(V[Iva]GSPSAQDEASPA); SMILES CC[C@]1(C)NC(=O)[C@H](C(C)C)NC(=O)[C@H](C)NC(=O)[C@@H]2CCCN2C(=O)[C@H](CO)NC(=O)[C@H](C)NC(=O)[C@H](CCC(=O)O)NC(=O)[C@H](CC(=O)O)NC(=O)[C@H](CCC(N)=O)NC(=O)[C@H](C)NC(=O)[C@H](CO)NC(=O)[C@@H]2CCCN2C(=O)[C@H](CO)NC(=O)CNC1=O) | significantly reduced | significantly less than that in bleomycin group | significantly reduce | significantly improved | significantly improved | significant therapeutic improvement | significant therapeutic improvement | significantly reduce | better effects on inhibiting and improving the activity of α-SMA
(PEG2-PEG2-γGlu-CO(CH2)18CO2H)-Val-Iva-Gly-Ser-Pro-Ser-Ala-Gln-Glu-Glu-Ala-Ser-Pro-Leu-NH2 ({C20 diacid-γGlu-PEG2′-PEG2′}-V[Iva]GSPSAQEEASPL-NH2) [Compound 11] | significantly reduced | significantly less than that in bleomycin group | significantly reduce | significantly improved | significantly improved | significant therapeutic improvement | significant therapeutic improvement | significantly reduce | better effects on inhibiting and improving the activity of α-SMA
Compound 22 (V[Iva]GSPSAQEEASPA; not fully specified (N-terminus, C-terminus)) | significantly reduced | significantly less than that in bleomycin group | significantly reduce | significantly improved | significantly improved | significant therapeutic improvement | significant therapeutic improvement | significantly reduce | better effects on inhibiting and improving the activity of α-SMA
